These results are taken from article PMC7791843, “Production of 10-methyl branched fatty acids in yeast” (Biotechnology for Biofuels, 2021).

This assay deals with T1, T. curvata BfaA (Thermomonospora curvata, UniProt D1ABB3).
T1 construct: gene Tcur_1573; native gene from genomic DNA (DSMZ), plasmid pNC964 (strain NS1164), crude E. coli cell-free extract
T1 sequence (D1ABB3 1-455): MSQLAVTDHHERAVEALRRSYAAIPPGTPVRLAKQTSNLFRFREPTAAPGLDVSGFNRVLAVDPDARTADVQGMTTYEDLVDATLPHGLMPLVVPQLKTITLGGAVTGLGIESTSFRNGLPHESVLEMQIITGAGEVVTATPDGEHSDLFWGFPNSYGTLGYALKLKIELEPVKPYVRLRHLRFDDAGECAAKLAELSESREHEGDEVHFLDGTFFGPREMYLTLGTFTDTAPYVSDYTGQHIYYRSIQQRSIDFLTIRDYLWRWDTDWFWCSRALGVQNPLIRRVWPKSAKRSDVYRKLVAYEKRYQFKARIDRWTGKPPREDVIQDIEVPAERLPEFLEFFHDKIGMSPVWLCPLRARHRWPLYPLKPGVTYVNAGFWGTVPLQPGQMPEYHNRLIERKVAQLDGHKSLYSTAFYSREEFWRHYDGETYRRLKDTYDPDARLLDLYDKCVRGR
Nature of the assay: crude extract assay, GC-FID of 10-methyl fatty acid. Format: biochemical. As to conditions: 10 mM NADPH, 37 °C, 16 h; heat-inactivated BfaB lysate with 10-methylene acyl chains.

`NC(=O)C1=CN([C@@H]2O[C@H](COP(=O)(O)OP(=O)(O)OC[C@H]3O[C@@H](n4cnc5c(N)ncnc54)[C@H](OP(=O)(O)O)[C@@H]3O)[C@@H](O)[C@H]2O)C=CC1` [NADPH]: the “crude extract assay, GC-FID of 10-methyl fatty acid” value was “We detected 10-methylstearic acid production in the presence of NADPH, but not NADH”.
